As usually defined, the IC50 is the midpoint of a concentration-inhibition curve.

Ten molecules from patent EP1077967B1, “BIPHENYL OXO-ACETIC ACIDS USEFUL IN THE TREATMENT OF INSULIN RESISTANCE AND HYPERGLYCEMIA” (Wyeth, priority 1998, dated 1999) can be followed below.

For experiment [1], the system named is rat hepatic microsomal PTPases. The experiment can be described thus: Inhibition of tri-phosphorylated insulin receptor dodecaphosphopeptide dephosphorylation by rat hepatic PTPases (malachite green). The experiment is classed as biochemical. The conditions noted are these: rat liver microsomal fraction; for % Change from Control: PTPase activity, compound at 50 µM; for IC50: % Change from Control.

In a further experiment the target is T1, Human recombinant PTP1B (Homo sapiens, UniProt P18031).
T1 construct: made in house
T1 sequence (P18031 1-435): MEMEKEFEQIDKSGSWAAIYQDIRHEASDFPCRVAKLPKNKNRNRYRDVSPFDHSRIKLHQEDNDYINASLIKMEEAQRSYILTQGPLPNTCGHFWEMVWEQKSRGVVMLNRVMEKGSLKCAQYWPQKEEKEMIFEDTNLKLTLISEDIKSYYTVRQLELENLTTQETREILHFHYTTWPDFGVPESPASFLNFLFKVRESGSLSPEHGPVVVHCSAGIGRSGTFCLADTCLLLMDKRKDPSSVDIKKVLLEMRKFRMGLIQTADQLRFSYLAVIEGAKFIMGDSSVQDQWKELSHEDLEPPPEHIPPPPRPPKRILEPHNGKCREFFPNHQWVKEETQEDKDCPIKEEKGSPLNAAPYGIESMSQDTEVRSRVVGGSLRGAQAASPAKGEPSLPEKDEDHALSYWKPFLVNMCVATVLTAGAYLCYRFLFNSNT
Nature of the experiment: Inhibition of tri-phosphorylated insulin receptor dodecaphosphopeptide dephosphorylation by hPTP1B (malachite green). The experiment is classed as biochemical. The conditions noted are these: recombinant PTP1B, dodecaphosphopeptide substrate.

The subject of a further experiment is diabetic (ob/ob) mice. Nature of the experiment: Blood glucose lowering in diabetic (ob/ob) mice. The conditions noted are these: Mus musculus, po, cells marked a = no significant activity (p<0.05) at this dose. The experiment is classed as in vivo.
The mark [2] stands for this setting: read-out: % Change Insulin from Vehicle.
Setting [3] is: plasma glucose, read-out: % Change Glucose from Vehicle.

Where two headings read alike, the source gives them in different places.

For `O=C(O)[C@H](Cc1ccccc1)Oc1ccc(-c2ccc(-c3c(Cc4ccccc4)oc4ccccc34)cc2)cc1` [Example 1, (2S)-2-[4'-(2-Benzyl-benzofuran-3-yl)-biphenyl-4-yloxy]-3-phenyl-propionic acid], the “% Change from Control” value in experiment [1] was -53%. Besides, the IC50 on Human recombinant PTP1B stood at 0.322 µM. Also, the change in vivo at 100 mg/kg in the experiment with diabetic (ob/ob) mice (setting [2]) was 17%; in the experiment on diabetic (ob/ob) mice (setting [3]), -40.3%.

In the case of `COc1ccc(-c2cc(-c3ccc(-c4c(Cc5ccccc5)sc5ccccc45)cc3)cc(-c3ccc(OC)cc3)c2OCC(=O)O)cc1` [Example 2], the IC50 in experiment [1] is 28.4 µM; at Human recombinant PTP1B, 0.025 µM. Also, the change in vivo at 25 mg/kg with diabetic (ob/ob) mice (setting [2]) was 11.2%; in the experiment on diabetic (ob/ob) mice (setting [3]), -25.5%.

As for `COc1ccc(-c2cc(-c3ccc(-c4c(Cc5ccccc5)sc5ccccc45)cc3)cc(Br)c2OCC(=O)O)cc1` [Example 3], the figures for the IC50 (in experiment [1]; at Human recombinant PTP1B) were 29.9 µM and 0.029 µM, respectively. Moreover, the values for the change in vivo at 25 mg/kg in the experiment with diabetic (ob/ob) mice (setting [2]) and in the experiment on diabetic (ob/ob) mice (setting [3]) were 23.5% and -29.9%, respectively.

As to `CCCCc1oc2ccccc2c1-c1ccc(-c2ccc(OC(Cc3ccccc3)C(=O)O)cc2)cc1` (stereo not drawn) [Example 10, 2-[4'-(2-Butyl-benzofuran-3-yl)-biphenyl-4-yloxy]-3-phenyl-propionic acid], the “% Change from Control” value in experiment [1] is -72%. Moreover, at Human recombinant PTP1B, the concentration for half-maximal inhibition (IC50) stood at 0.44 µM. The change in vivo at 100 mg/kg in the experiment on diabetic (ob/ob) mice (setting [2]) is -51.9%; in the experiment on diabetic (ob/ob) mice (setting [3]), -34.2%.

On to `O=C(O)C(Cc1ccccc1)Oc1ccc(-c2ccc(-c3c(Cc4ccccc4)oc4ccccc34)cc2)cc1` (stereo not drawn) [Example 11, 2-[4'-(2-Benzyl-benzofuran-3-yl)-biphenyl-4-yloxy]-3-phenyl-propionic acid], for which the “% Change from Control” value in experiment [1] was -61%. Also, the IC50 on Human recombinant PTP1B stood at 0.27 µM. In addition, the change in vivo at 100 mg/kg was -44.9% in the experiment with diabetic (ob/ob) mice (setting [2]) and -40.4% in the experiment on diabetic (ob/ob) mice (setting [3]).

As for `CCCCc1sc2ccccc2c1-c1ccc(-c2ccc(OC(Cc3ccccc3)C(=O)O)cc2)cc1` (stereo not drawn) [Example 12, 2-[4'-(2-Butyl-benzo[b]thiopen-3-yl)-biphenyl-4-yloxy]-3-phenyl-propionic acid], the “% Change from Control” value in experiment [1] is reported as -50%. Further, on Human recombinant PTP1B, the IC50 stood at 0.176 µM. The change in vivo at 100 mg/kg in the experiment on diabetic (ob/ob) mice (setting [2]) was -15.8%; in the experiment on diabetic (ob/ob) mice (setting [3]) it was -27.5%.

`O=C(O)[C@@H](Cc1ccccc1)Oc1ccc(-c2ccc(-c3c(Cc4ccccc4)oc4ccccc34)cc2)cc1` [Example 15, (2R)-2-[4'-(2-Benzyl-benzofuran-3-yl)-biphenyl-4-yloxy]-3-phenyl-propionic acid]: the “% Change from Control” value in experiment [1] is listed as -59%. In addition, at Human recombinant PTP1B, the 50% inhibitory concentration (IC50) was found to be 0.348 µM. The change in vivo at 100 mg/kg in the experiment on diabetic (ob/ob) mice (setting [2]) was 4.1%; in the experiment on diabetic (ob/ob) mice (setting [3]), -35%.

`C[C@@H](Oc1ccc(-c2ccc(-c3c(Cc4ccccc4)oc4ccccc34)cc2)cc1)C(=O)O` [Example 17, (2R)-2-[4'-(2-Benzyl-benzofuran-3-yl)-biphenyl-4-yloxy]-propionic acid]: the “% Change from Control” value in experiment [1] is -63%. In addition, at Human recombinant PTP1B, the IC50 is 1.32 µM. Also, the change in vivo at 100 mg/kg is -94.4% in the experiment on diabetic (ob/ob) mice (setting [2]) and 13.7% in the experiment on diabetic (ob/ob) mice (setting [3]).

Consider `O=C(O)[C@@H](Cc1ccccc1)Oc1ccc(-c2ccc(-c3c(Cc4ccc(F)cc4)sc4ccccc34)cc2)cc1` [Example 19], for which the IC50 in experiment [1] was determined as 21.4 µM; on Human recombinant PTP1B it was 0.123 µM. The results for the change in vivo at 100 mg/kg with diabetic (ob/ob) mice (setting [2]) and in the experiment with diabetic (ob/ob) mice (setting [3]) were 1.1% and -27.7%, respectively.

In the case of `O=C(O)[C@@H](Cc1ccccc1)Oc1ccc(-c2ccc(-c3c(Cc4ccc(O)c(O)c4)sc4ccccc34)cc2)cc1` [Example 28, (2R)-2-{4'-[2-(3,4-Dihydroxy-benzyl)-benzo[b]thiophene-3-yl)-biphenyl-4-yloxy]-3-phenyl-propionic acid], the IC50 in experiment [1] worked out at 20.6 µM; at Human recombinant PTP1B, 0.122 µM. Further, the change in vivo at 25 mg/kg in the experiment with diabetic (ob/ob) mice (setting [3]) was -20%.
